# Reference: patent publication US8815909B2, “Diaminocyclohexane compounds and uses thereof” (Bristol-Myers Squibb Company, priority 2011, dated 2014)
# Biological target: T1, human Y4 receptor (Homo sapiens, UniProt P50391)
# T1 construct: expressed in transfected cells
# Assay: NPY4 cAMP HTRF Agonist Assay (inhibitory cAMP assay, Gi activation by Y4 agonism)
# Format: cell-based
# Details: human Y4 stable CHO clonal cells, forskolin + IBMX; read-out: NPY4 cAMP HTRF Agonist Assay EC50
# Method: NPY4 cAMP HTRF Agonist Assay
# The functionality of the compound at Y4 receptor was analyzed using a inhibitory cAMP assay (CISBIO, HTRF cAMP kit #62AM4PEC) to measure the Gi activation by Y4 agonism.
# The human Y4 stable CHO clonal cells were maintained in culture medium (F-12 containing 10% Fetal Bovine Serum, […] GENETICIN®, […] Zeocin). Before the experiment, 5 μL of 1 uM Forskolin (Sigma, # F6886) and 100 uM IBMX (Sigma, # I5879) in PBS buffer were added into 384-well plates (PE, Proxi-plate) that were pre-dotted with 100 nL compounds. The cells were removed from the flasks by Cellstripper, counted and adjusted to 1.0×10^6 cells/mL in PBS buffer, and added 5 μL/well (5000 cells/well) into the above 384-well plates. The cells were then covered and incubated for 30 minutes at room temperature. After incubation, 5 μL/well of D2-conjugate in HTRF lysis buffer was first added, followed by adding 5 μL/well of anti-cAMP Cryptate in HTRF lysis buffer. The plates were incubated for another 1 hour at room temperature and read on the EnVision Multilabel Plate Reader.
# Compounds described herein were tested in the above assay.
# T1 sequence (P50391 whole entry): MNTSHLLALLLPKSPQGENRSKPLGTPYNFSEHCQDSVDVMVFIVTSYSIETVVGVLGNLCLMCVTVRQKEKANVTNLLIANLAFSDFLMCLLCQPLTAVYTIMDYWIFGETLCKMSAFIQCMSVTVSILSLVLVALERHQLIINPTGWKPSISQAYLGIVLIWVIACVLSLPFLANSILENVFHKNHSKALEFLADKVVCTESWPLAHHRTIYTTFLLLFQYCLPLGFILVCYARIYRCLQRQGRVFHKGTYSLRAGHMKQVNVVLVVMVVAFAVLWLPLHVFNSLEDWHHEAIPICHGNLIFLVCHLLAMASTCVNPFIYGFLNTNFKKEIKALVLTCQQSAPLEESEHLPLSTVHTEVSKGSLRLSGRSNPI
row,Structure (SMILES),EC50
1,"O=[N+]([O-])c1ccc(N2CCC[C@H](N[C@@H]3CCCC[C@H]3Nc3ncc(-c4ccc(OC(F)(F)F)cc4)o3)C2)cc1 [Example 1, (1R,2R)—N1-((S)-1-(4-Nitrophenyl)piperidin-3-yl)-N2-(5-(4-(trifluoromethoxy)phenyl)oxazol-2-yl)cyclohexane-1,2-diamine]",6 nM
2,"O=[N+]([O-])c1ccc(N2CCC[C@H](N[C@@H]3CCCC[C@H]3Nc3ncc(-c4ccccc4)o3)C2)cc1 [Example 2, (1R,2R)—N1-((S)-1-(4-Nitrophenyl)piperidin-3-yl)-N2-(5-phenyloxazol-2-yl)cyclohexane-1,2-diamine]",3 nM
3,"O=[N+]([O-])c1ccc(N2CCC[C@H](N[C@@H]3CCCC[C@H]3Nc3nc4ccccc4o3)C2)cc1 [Example 3, (1R,2R)—N1-(Benzo[d]oxazol-2-yl)-N2-((S)-1-(4-nitrophenyl)piperidin-3-yl)cyclohexane-1,2-diamine]",69 nM
4,"O=[N+]([O-])c1ccc(N2CCC[C@H](N[C@@H]3CCCC[C@H]3Nc3nc4cc(OC(F)(F)F)ccc4o3)C2)cc1 [Example 4, (1R,2R)—N1-((S)-1-(4-Nitrophenyl)piperidin-3-yl)-N2-(5-(trifluoromethoxy)benzo[d]oxazol-2-yl)cyclohexane-1,2-diamine]",236 nM
5,"O=[N+]([O-])c1ccc(N2C[C@@H]3C[C@H](N[C@@H]4CCCC[C@H]4Nc4ncc(-c5ccccc5)o4)[C@H]2C3)cc1 [Example 6, (1R,2R)—N1-((1R,4R,6S)-2-(4-Nitrophenyl)-2-azabicyclo[2.2.1]heptan-6-yl)-N2-(5-phenyloxazol-2-yl)cyclohexane-1,2-diamine]",6 nM
6,"O=[N+]([O-])c1ccc(N2CCC[C@H](N[C@@H]3CCCC[C@H]3Nc3ncc(-c4ccc(C(F)(F)F)cc4)o3)C2)cc1 [Example 7, (1R,2R)—N1-((S)-1-(4-Nitrophenyl)piperidin-3-yl)-N2-(5-(4-(trifluoromethyl)phenyl)oxazol-2-yl)cyclohexane-1,2-diamine]",185 nM
7,"O=[N+]([O-])c1ccc(N2CCC[C@H](N[C@@H]3CCCC[C@H]3Nc3ncc(-c4ccccc4F)o3)C2)cc1 [Example 9, (1R,2R)—N1-(5-(2-Fluorophenyl)oxazol-2-yl)-N2-((S)-1-(4-nitrophenyl)piperidin-3-yl)cyclohexane-1,2-diamine]",4 nM
8,"O=[N+]([O-])c1ccc(N2CCC[C@H](N[C@@H]3CCCC[C@H]3Nc3ncc(-c4ccc(F)c(F)c4)o3)C2)cc1 [Example 10, (1R,2R)—N1-(5-(3,4-Difluorophenyl)oxazol-2-yl)-N2-((S)-1-(4-nitrophenyl)piperidin-3-yl)cyclohexane-1,2-diamine]",26 nM
9,"O=[N+]([O-])c1ccc(N2CCC[C@H](N[C@@H]3CCCC[C@H]3Nc3ncc(-c4ccc(O)cc4)o3)C2)cc1 [Example 12, 4-(2-((1R,2R)-2-((S)-1-(4-Nitrophenyl)piperidin-3-ylamino)cyclohexylamino)oxazol-5-yl)phenol]",1 nM
10,"O=[N+]([O-])c1ccc(N2CCC[C@H](N[C@@H]3CCCC[C@H]3Nc3ncc(-c4ccc(OC(F)F)cc4)o3)C2)cc1 [Example 13, (1R,2R)—N1-(5-(4-(Difluoromethoxy)phenyl)oxazol-2-yl)-N2-((S)-1-(4-nitrophenyl)piperidin-3-yl)cyclohexane-1,2-diamine]",3 nM
11,"CC(C)(C)Oc1ccc(-c2cnc(N[C@@H]3CCCC[C@H]3N[C@H]3CCCN(c4ccc([N+](=O)[O-])cc4)C3)o2)cc1 [Example 14, (1R,2R)—N1-(5-(4-tert-Butoxyphenyl)oxazol-2-yl)-N2-((S)-1-(4-nitrophenyl)piperidin-3-yl)cyclohexane-1,2-diamine]",920 nM
12,"O=[N+]([O-])c1ccc(N2C[C@@H]3C[C@H](N[C@@H]4CCCC[C@H]4Nc4ncc(-c5ccccc5F)o4)[C@H]2C3)cc1 [Example 15, (1R,2R)—N1-(5-(2-Fluorophenyl)oxazol-2-yl)-N2-((1R,4R,6S)-2-(4-nitrophenyl)-2-azabicyclo[2.2.1]heptan-6-yl)cyclohexane-1,2-diamine]",8 nM
13,"O=[N+]([O-])c1ccc(N2CCC[C@H](N[C@@H]3CCCC[C@H]3Nc3ncc(-c4ccc(F)cc4)o3)C2)cc1 [Example 18, (1R,2R)—N1-(5-(4-Fluorophenyl)oxazol-2-yl)-N2-((S)-1-(4-nitrophenyl)piperidin-3-yl)cyclohexane-1,2-diamine]",7 nM
14,"O=[N+]([O-])c1ccc(N2CCC[C@H](N[C@@H]3CCCC[C@H]3Nc3ncc(-c4cccc(F)c4)o3)C2)cc1 [Example 19, (1R,2R)—N1-(5-(3-Fluorophenyl)oxazol-2-yl)-N2-((S)-1-(4-nitrophenyl)piperidin-3-yl)cyclohexane-1,2-diamine]",23 nM
15,"COc1ccc(-c2cnc(N[C@@H]3CCCC[C@H]3N[C@H]3CCCN(c4ccc([N+](=O)[O-])cc4)C3)o2)c(F)c1 [Example 21, (1R,2R)—N1-(5-(2-fluoro-4-methoxyphenyl)oxazol-2-yl)-N2-((S)-1-(4-nitrophenyl)piperidin-3-yl)cyclohexane-1,2-diamine]",11 nM
16,"O=[N+]([O-])c1ccc(N2CCC[C@H](N[C@@H]3CCCC[C@H]3Nc3cc(-c4cccc(OC(F)(F)F)c4)ccn3)C2)cc1 [Example 23, (1R,2R)—N1-((S)-1-(4-Nitrophenyl)piperidin-3-yl)-N2-(4-(3-(trifluoromethoxy)phenyl)pyridin-2-yl)cyclohexane-1,2-diamine]",71 nM
17,"O=[N+]([O-])c1ccc(N2CCC[C@H](N[C@@H]3CCCC[C@H]3Nc3cc(-c4ccc(OC(F)(F)F)cc4)ccn3)C2)cc1 [Example 24, (1R,2R)—N1-((S)-1-(4-Nitrophenyl)piperidin-3-yl)-N2-(4-(4-(trifluoromethoxy)phenyl)pyridin-2-yl)cyclohexane-1,2-diamine]",69 nM
18,"O=[N+]([O-])c1ccc(N2CCC[C@H](N[C@@H]3CCCC[C@H]3Nc3nnc(-c4ccccc4)o3)C2)cc1 [Example 27, (1R,2R)—N1-((S)-1-(4-Nitrophenyl)piperidin-3-yl)-N2-(5-phenyl-1,3,4-oxadiazol-2-yl)cyclohexane-1,2-diamine]",60 nM
19,"O=[N+]([O-])c1ccc(N2CCC[C@H](N[C@@H]3CCCC[C@H]3Nc3nccc(-c4ccc(OC(F)(F)F)cc4)n3)C2)cc1 [Example 28, (1R,2R)—N1-((S)-1-(4-Nitrophenyl)piperidin-3-yl)-N2-(4-(4-(trifluoromethoxy)phenyl)pyrimidin-2-yl)cyclohexane-1,2-diamine]",217 nM

# Further compounds by falling EC50, results first:
row,EC50,Structure (SMILES)
1,911 nM,"O=[N+]([O-])c1ccc(N2CC3CCC2[C@@H](N[C@@H]2CCCC[C@H]2Nc2ncc(-c4ccc(OC(F)(F)F)cc4)o2)C3)cc1 (stereo partly drawn) [Example 17, (1R,2R)—N1-((6S)-2-(4-Nitrophenyl)-2-azabicyclo[2.2.2]octan-6-yl)-N2-(5-(4-(trifluoromethoxy)phenyl)oxazol-2-yl)cyclohexane-1,2-diamine]"
2,49 nM,"Cc1cc(OC(F)(F)F)ccc1-c1cnc(N[C@@H]2CCCC[C@H]2N[C@H]2CCCN(c3ccc([N+](=O)[O-])cc3)C2)o1 [Example 11, (1R,2R)—N1-(5-(2-Methyl-4-(trifluoromethoxy)phenyl)oxazol-2-yl)-N2-((S)-1-(4-nitrophenyl)piperidin-3-yl)cyclohexane-1,2-diamine]"
3,43 nM,"O=[N+]([O-])c1ccc(N2CCC[C@H](N[C@@H]3CCCC[C@H]3Nc3ncc(-c4cccc(OC(F)(F)F)c4)o3)C2)cc1 [Example 22, (1R,2R)—N1-((S)-1-(4-Nitrophenyl)piperidin-3-yl)-N2-(5-(3-(trifluoromethoxy)phenyl)oxazol-2-yl)cyclohexane-1,2-diamine]"
4,16 nM,"O=[N+]([O-])c1ccc(N2CCC[C@H](N[C@@H]3CCCC[C@H]3Nc3ncc(-c4ccc(OC(F)(F)F)c(F)c4)o3)C2)cc1 [Example 8, (1R,2R)—N1-(5-(3-Fluoro-4-(trifluoromethoxy)phenyl)oxazol-2-yl)-N2-((S)-1-(4-nitrophenyl)piperidin-3-yl)cyclohexane-1,2-diamine]"
5,14 nM,"O=[N+]([O-])c1ccc(N2CCC[C@H](N[C@@H]3CCCC[C@H]3Nc3cc(-c4ccccc4)ccn3)C2)cc1 [Example 25, (1R,2R)—N1-((S)-1-(4-Nitrophenyl)piperidin-3-yl)-N2-(4-phenylpyridin-2-yl)cyclohexane-1,2-diamine]"
6,10 nM,"O=[N+]([O-])c1ccc(N2CCC[C@H](N[C@@H]3CCCC[C@H]3Nc3ncc(-c4ccc(F)cc4F)o3)C2)cc1 [Example 20, (1R,2R)—N1-(5-(2,4-Difluorophenyl)oxazol-2-yl)-N2-((S)-1-(4-nitrophenyl)piperidin-3-yl)cyclohexane-1,2-diamine]"
7,9 nM,"O=[N+]([O-])c1ccc(N2C[C@@H]3C[C@H](N[C@@H]4CCCC[C@H]4Nc4ncc(-c5ccc(OC(F)(F)F)cc5)o4)[C@H]2C3)cc1 [Example 5, (1R,2R)—N1-((1R,4R,6S)-2-(4-Nitrophenyl)-2-azabicyclo[2.2.1]heptan-6-yl)-N2-(5-(4-(trifluoromethoxy)phenyl)oxazol-2-yl)cyclohexane-1,2-diamine]"
8,8 nM,O=[N+]([O-])c1ccc(N2CCC[C@H](N[C@@H]3CCCC[C@H]3Nc3ncc(-c4ccccc4)s3)C2)cc1 [Example 26]
9,6 nM,"O=[N+]([O-])c1ccc(N2C[C@@H]3C[C@H](N[C@@H]4CCCC[C@H]4Nc4ncc(-c5ccc(O)cc5)o4)[C@H]2C3)cc1 [Example 16, 4-(2-((1R,2R)-2-((1R,4R,6S)-2-(4-Nitrophenyl)-2-azabicyclo[2.2.1]heptan-6-ylamino)cyclohexylamino)oxazol-5-yl)phenol]"
